In one assay the target is T1, human recombinant ERα (Homo sapiens, UniProt P03372).
T1 construct: purchased PanVera (Madison, Wis.)
T1 sequence (P03372 1-595): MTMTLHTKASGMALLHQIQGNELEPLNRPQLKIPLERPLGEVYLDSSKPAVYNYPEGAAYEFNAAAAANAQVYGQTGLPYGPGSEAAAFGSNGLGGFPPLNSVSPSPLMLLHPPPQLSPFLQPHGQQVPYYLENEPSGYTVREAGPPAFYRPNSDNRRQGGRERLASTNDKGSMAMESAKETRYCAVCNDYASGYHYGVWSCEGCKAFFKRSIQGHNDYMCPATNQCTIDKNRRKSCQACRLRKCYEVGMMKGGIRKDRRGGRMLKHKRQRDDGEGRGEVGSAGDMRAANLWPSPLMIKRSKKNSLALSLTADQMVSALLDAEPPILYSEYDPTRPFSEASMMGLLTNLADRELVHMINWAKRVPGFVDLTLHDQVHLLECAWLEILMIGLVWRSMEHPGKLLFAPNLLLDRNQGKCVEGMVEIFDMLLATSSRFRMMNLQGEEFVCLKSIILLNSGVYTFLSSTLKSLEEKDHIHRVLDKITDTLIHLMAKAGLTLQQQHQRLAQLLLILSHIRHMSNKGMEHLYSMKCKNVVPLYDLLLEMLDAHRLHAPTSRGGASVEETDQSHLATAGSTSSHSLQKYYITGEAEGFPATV
The assay can be described thus: Fluorescence polarization estrogen receptor (ERFP) binding assay, ERα. Particulars: competition with Fluormone ES2; IC50 converted to Ki by Kenakin formula; read-out: FP α-ER Ki. As for the experimental part:
(§1) A homogeneous mix-and-measure estrogen receptor (ER) binding assay which utilizes fluorescence polarization (FP) technology is used to identify compounds with affinity for the estrogen receptor. Purchased from PanVera (Madison, Wis.), assay reagents include purified human recombinant ERα, human recombinant ERβ, ES2 screening buffer (100 mM potassium phosphate, pH 7.4, 100 μg/mL bovine gamma globulin), and Fluormone™ ES2.
(§2) For competition binding experiments, dilutions of test compounds are prepared at 2× the final assay concentration in 0.2% DMSO in ES2 Screening buffer on TECAN Genosys, and 25 μL compound/well is dispensed into black Costar ½ volume 96-well plates. Dependent upon a lot specific Kd determination, 10-40 nM ERα or 10-40 nM ERβ and 1 nM Fluormone ES2 are then added to these plates in a final assay volume of 50 μL/well. Plates are gently shaken for at least 5 minutes to mix and incubated for at least 1 hr 45 minutes to achieve equilibrium. (Reaction mixtures are stable for up to 5 hours). After centrifugation to remove air bubbles, plates are read on an LJL Analyst or Acquest equipped with Criterion software at the following settings: Fluorescence Polarization Mode; Static Polarizer on Excitation Side; Dynamic Polarizer on Emission Side; Excitation λ=485×/−5 10 nm; Emission λ=520+/−12.5 nm.
(§3) Polarized fluorescence intensity values are collected and subsequently converted electronically to millipolarization (mp) values. Following data reduction and normalization with Excel and/or Prism software, % Ctrl values at the various test concentrations are used to obtain IC50 values via non-linear regression analysis of a four-parameter logistic equation.
(§4) Because ligand depletion is a consideration in this assay (˜40-60% input ES2 is bound in the assay), IC50 values are converted to Ki values through application of the Kenakin formula, as outlined in the reference below, rather than via the more routinely-used Cheng-Prusoff formula.
As for `CSc1ccc(C2c3ccc(O)cc3CCN2c2ccc(O)cc2)cc1` (stereo not drawn) [Example 8, 2-(4-Hydroxyphenyl)-1-(4-methylsulfanylphenyl)-1,2,3,4-tetrahydroisoquinolin-6-ol], the Ki stood at 18 nM.

Turning to `Oc1ccc(N2CCc3cc(O)ccc3C2c2ccc(C(F)(F)F)cc2)cc1` (stereo not drawn) [Example 9, 2-(4-Hydroxyphenyl)-1-(4-trifluoromethylphenyl)-1,2,3,4-tetrahydroisoquinolin-6-ol], the Ki is 8 nM.

Consider `CCc1ccc(C2c3ccc(O)cc3CCN2c2ccc(O)cc2)cc1` (stereo not drawn) [Example 11, 1-(4-Ethylphenyl)-2-(4-hydroxyphenyl)-1,2,3,4-tetrahydroisoquinolin-6-ol], for which the Ki is 10 nM.

For `Oc1ccc(N2CCc3cc(O)ccc3C2Cc2ccccc2)cc1` (stereo not drawn) [Example 16, 1-Benzyl-2-(4-hydroxy-phenyl)-1,2,3,4-tetrahydro-isoquinolin-6-ol], the inhibition constant (Ki) was found to be 15 nM.

`Cc1ccc(N2CCc3cc(O)ccc3C2c2cccs2)cc1O` (stereo not drawn) [Example 22, 2-(3-Hydroxy-4-methyl-phenyl)-1-thiophen-2-yl-1,2,3,4-tetrahydro-isoquinolin-6-ol]: the Ki stood at 12 nM.

Turning to `O=C(c1ccc(O)cc1)N1CCc2cc(O)ccc2C1` [Example 23, (6-Hydroxy-3,4-dihydro-1H-isoquinolin-2-yl)-(4-hydroxy-phenyl)-methanone], the Ki worked out at 660 nM.

`O=C(c1ccc(O)cc1)N1CCc2ccc(O)cc2C1` [Example 24, (7-Hydroxy-3,4-dihydro-1H-isoquinolin-2-yl)-(4-hydroxy-phenyl)-methanone]: the Ki stood at 660 nM.

The target in a further assay is T2, human recombinant ERβ (Homo sapiens, UniProt Q92731).
T2 construct: purchased PanVera (Madison, Wis.)
T2 sequence (Q92731 whole entry): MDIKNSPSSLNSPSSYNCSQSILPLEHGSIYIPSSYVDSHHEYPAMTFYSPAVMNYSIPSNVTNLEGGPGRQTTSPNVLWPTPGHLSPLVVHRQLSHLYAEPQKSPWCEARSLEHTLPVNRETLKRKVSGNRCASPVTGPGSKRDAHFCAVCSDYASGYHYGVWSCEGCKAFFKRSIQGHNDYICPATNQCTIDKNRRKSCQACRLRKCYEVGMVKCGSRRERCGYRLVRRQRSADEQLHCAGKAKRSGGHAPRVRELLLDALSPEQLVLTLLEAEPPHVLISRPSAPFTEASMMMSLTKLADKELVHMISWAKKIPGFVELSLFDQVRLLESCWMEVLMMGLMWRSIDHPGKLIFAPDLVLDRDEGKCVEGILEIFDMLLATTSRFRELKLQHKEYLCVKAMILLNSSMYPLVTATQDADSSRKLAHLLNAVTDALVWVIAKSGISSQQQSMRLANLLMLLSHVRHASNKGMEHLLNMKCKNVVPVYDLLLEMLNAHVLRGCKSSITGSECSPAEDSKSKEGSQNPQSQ
The assay can be described thus: Fluorescence polarization estrogen receptor (ERFP) binding assay, ERβ. Particulars: competition with Fluormone ES2; IC50 converted to Ki by Kenakin formula; read-out: FP β-ER Ki. As for the experimental part:
as §1, §2, §3, §4
Take `CSc1ccc(C2c3ccc(O)cc3CCN2c2ccc(O)cc2)cc1` (stereo not drawn) [Example 8, 2-(4-Hydroxyphenyl)-1-(4-methylsulfanylphenyl)-1,2,3,4-tetrahydroisoquinolin-6-ol]: the Ki turned out to be 39 nM.

Consider `Oc1ccc(N2CCc3cc(O)ccc3C2c2ccc(C(F)(F)F)cc2)cc1` (stereo not drawn) [Example 9, 2-(4-Hydroxyphenyl)-1-(4-trifluoromethylphenyl)-1,2,3,4-tetrahydroisoquinolin-6-ol], for which the Ki came to 4.9 nM.

Regarding `CCc1ccc(C2c3ccc(O)cc3CCN2c2ccc(O)cc2)cc1` (stereo not drawn) [Example 11, 1-(4-Ethylphenyl)-2-(4-hydroxyphenyl)-1,2,3,4-tetrahydroisoquinolin-6-ol], the Ki was found to be 9 nM.

As to `Oc1ccc(N2CCc3cc(O)ccc3C2Cc2ccccc2)cc1` (stereo not drawn) [Example 16, 1-Benzyl-2-(4-hydroxy-phenyl)-1,2,3,4-tetrahydro-isoquinolin-6-ol], the Ki amounted to 18 nM.

On to `Cc1ccc(N2CCc3cc(O)ccc3C2c2cccs2)cc1O` (stereo not drawn) [Example 22, 2-(3-Hydroxy-4-methyl-phenyl)-1-thiophen-2-yl-1,2,3,4-tetrahydro-isoquinolin-6-ol], for which the Ki was 3.5 nM.

Consider `O=C(c1ccc(O)cc1)N1CCc2cc(O)ccc2C1` [Example 23, (6-Hydroxy-3,4-dihydro-1H-isoquinolin-2-yl)-(4-hydroxy-phenyl)-methanone], for which the Ki amounted to 229 nM.

In the case of `O=C(c1ccc(O)cc1)N1CCc2ccc(O)cc2C1` [Example 24, (7-Hydroxy-3,4-dihydro-1H-isoquinolin-2-yl)-(4-hydroxy-phenyl)-methanone], the Ki amounted to 215 nM.

Still in this assay, the particulars now being: ratio α-ER Ki / β-ER Ki.
As to `CSc1ccc(C2c3ccc(O)cc3CCN2c2ccc(O)cc2)cc1` (stereo not drawn) [Example 8, 2-(4-Hydroxyphenyl)-1-(4-methylsulfanylphenyl)-1,2,3,4-tetrahydroisoquinolin-6-ol], the “FP Selectivity” value stood at 0.5.

As for `Oc1ccc(N2CCc3cc(O)ccc3C2c2ccc(C(F)(F)F)cc2)cc1` (stereo not drawn) [Example 9, 2-(4-Hydroxyphenyl)-1-(4-trifluoromethylphenyl)-1,2,3,4-tetrahydroisoquinolin-6-ol], the “FP Selectivity” value amounted to 1.6.

As to `CCc1ccc(C2c3ccc(O)cc3CCN2c2ccc(O)cc2)cc1` (stereo not drawn) [Example 11, 1-(4-Ethylphenyl)-2-(4-hydroxyphenyl)-1,2,3,4-tetrahydroisoquinolin-6-ol], the “FP Selectivity” value is recorded as 1.1.

Consider `Oc1ccc(N2CCc3cc(O)ccc3C2Cc2ccccc2)cc1` (stereo not drawn) [Example 16, 1-Benzyl-2-(4-hydroxy-phenyl)-1,2,3,4-tetrahydro-isoquinolin-6-ol], for which the “FP Selectivity” value stood at 0.8.

Take `Cc1ccc(N2CCc3cc(O)ccc3C2c2cccs2)cc1O` (stereo not drawn) [Example 22, 2-(3-Hydroxy-4-methyl-phenyl)-1-thiophen-2-yl-1,2,3,4-tetrahydro-isoquinolin-6-ol]: the “FP Selectivity” value is given as 3.5.

Consider `O=C(c1ccc(O)cc1)N1CCc2cc(O)ccc2C1` [Example 23, (6-Hydroxy-3,4-dihydro-1H-isoquinolin-2-yl)-(4-hydroxy-phenyl)-methanone], for which the “FP Selectivity” value is 2.9.

As to `O=C(c1ccc(O)cc1)N1CCc2ccc(O)cc2C1` [Example 24, (7-Hydroxy-3,4-dihydro-1H-isoquinolin-2-yl)-(4-hydroxy-phenyl)-methanone], the “FP Selectivity” value worked out at 3.1.

(Values after patent US7256201B2, “Selective estrogen receptor-β ligands” (AstraZeneca AB, priority 2000, dated 2007).)
